Measurements: PubChem BioAssay AID330 (DTP/NCI, 2004)
Several values for one entry are separate records, joined by “and”; a condition that tells them apart may be missing. Equal entries are not always repeated. Toxic doses and inconclusive results are not listed. Rule for the calls: active = survival T/C of 150% or more; inactive = T/C below 125% in these data.

System: P388 leukemia ip, CD2F1 mice, survival T/C
Assay: NCI In Vivo Anticancer Drug Screen. Data for tumor model P388 Leukemia (intraperitoneal) in CD2F1 (CDF1) mice
Settings: endpoint: median survival time, higher = longer survival
Outline: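 Mice carrying the transplanted tumor received test compound or vehicle. Survival was recorded in each group, and the value is the treated-group measurement divided by that of the vehicle-treated control group.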

[1] = dose: 5.0 mg/kg/injection, schedule: Q01DX009 (ip), vehicle: saline with Tween-80
[2] = dose: 60.0 mg/kg/injection, schedule: Q01DX005 (ip), vehicle: saline with Tween-80
[3] = dose: 120.0 mg/kg/injection, schedule: Q01DX005 (ip), vehicle: saline with Tween-80
[4] = dose: 240.0 mg/kg/injection, schedule: Q01DX005 (ip), vehicle: saline with Tween-80
[5] = dose: 100.0 mg/kg/injection, schedule: Q04DX003 (ip), vehicle: saline with Tween-80
[6] = dose: 200.0 mg/kg/injection, schedule: Q04DX003 (ip), vehicle: saline with Tween-80
[7] = dose: 100.0 mg/kg/injection, schedule: Q01DX001 (ip), vehicle: saline with Tween-80
[8] = dose: 200.0 mg/kg/injection, schedule: Q01DX001 (ip), vehicle: saline with Tween-80
[9] = dose: 60.0 mg/kg/injection, schedule: Q01DX005 (ip), vehicle: Klucel (hydroxypropylcellulose) (HPC)
[10] = dose: 120.0 mg/kg/injection, schedule: Q01DX005 (ip), vehicle: Klucel (hydroxypropylcellulose) (HPC)
[11] = dose: 240.0 mg/kg/injection, schedule: Q01DX005 (ip), vehicle: Klucel (hydroxypropylcellulose) (HPC)
[12] = dose: 50.0 mg/kg/injection, schedule: Q01DX009 (ip), vehicle: Klucel (hydroxypropylcellulose) (HPC)
[13] = dose: 100.0 mg/kg/injection, schedule: Q01DX009 (ip), vehicle: Klucel (hydroxypropylcellulose) (HPC)
[14] = dose: 200.0 mg/kg/injection, schedule: Q01DX009 (ip), vehicle: Klucel (hydroxypropylcellulose) (HPC)

Measured: T/C

CC(C)COC(=O)N(CCCl)N=O
inactive: dose: 0.62 mg/kg/injection, schedule: Q01DX009 (ip), vehicle: saline with Tween-80 100 % of control and 111 % of control | dose: 1.25 mg/kg/injection, schedule: Q01DX001 (ip), vehicle: saline with Tween-80 103 % of control | dose: 1.25 mg/kg/injection, schedule: Q01DX009 (ip), vehicle: saline with Tween-80 108 % of control and 116 % of control | dose: 2.5 mg/kg/injection, schedule: Q01DX001 (ip), vehicle: saline with Tween-80 100 % of control | dose: 2.5 mg/kg/injection, schedule: Q01DX009 (ip), vehicle: saline with Tween-80 112 % of control and 115 % of control and 120 % of control | dose: 5.0 mg/kg/injection, schedule: Q01DX001 (ip), vehicle: saline with Tween-80 100 % of control and 112 % of control | [1] 100 % of control and 97 % of control | dose: 10.0 mg/kg/injection, schedule: Q01DX001 (ip), vehicle: saline with Tween-80 90 % of control

CC(C(C(=O)N1CCCCC1)N1CCCCC1)N1CCCCC1 (stereo not drawn)
inactive: dose: 100.0 mg/kg/injection, schedule: Q01DX009 (ip), vehicle: saline 99 % of control | dose: 200.0 mg/kg/injection, schedule: Q01DX009 (ip), vehicle: saline 87 % of control | dose: 400.0 mg/kg/injection, schedule: Q01DX009 (ip), vehicle: saline 97 % of control

Cc1ccccc1-[n+]1noc(N)n1
inactive: dose: 3.13 mg/kg/injection, schedule: Q01DX009 (ip), vehicle: water 101 % of control | dose: 6.25 mg/kg/injection, schedule: Q01DX009 (ip), vehicle: water 113 % of control | dose: 12.5 mg/kg/injection, schedule: Q01DX009 (ip), vehicle: water 120 % of control | dose: 14.7 mg/kg/injection, schedule: Q01DX009 (ip), vehicle: water 106 % of control

Nc1ncnc2nc(C3OC(CO)C(O)C3O)[nH]c12 (stereo not drawn)
inactive: [2] 104 % of control | [3] 98 % of control | [4] 95 % of control

CC(C)(C)OC(=O)NCCCCC(NC(=O)OCc1ccccc1)C(=O)O (stereo not drawn)
inactive: dose: 25.0 mg/kg/injection, schedule: Q01DX005 (ip), vehicle: Klucel (hydroxypropylcellulose) (HPC) 102 % of control | dose: 50.0 mg/kg/injection, schedule: Q01DX005 (ip), vehicle: Klucel (hydroxypropylcellulose) (HPC) 100 % of control | dose: 100.0 mg/kg/injection, schedule: Q01DX005 (ip), vehicle: Klucel (hydroxypropylcellulose) (HPC) 101 % of control

[Ni+2].[S-]CC[S-]
inactive: [5] 92 % of control | [6] 108 % of control

Cc1cc(Cl)ccc1NC(=O)/C(Cl)=C1/Sc2ccccc2NC1=O
inactive: [7] 105 % of control | [8] 97 % of control | dose: 400.0 mg/kg/injection, schedule: Q01DX001 (ip), vehicle: saline with Tween-80 97 % of control

COC(=O)/C=C(\C)NC(=NC(C)(C)C)c1ccccc1
inactive: dose: 50.0 mg/kg/injection, schedule: Q01DX009 (ip), vehicle: saline with Tween-80 98 % of control | dose: 100.0 mg/kg/injection, schedule: Q01DX009 (ip), vehicle: saline with Tween-80 101 % of control | dose: 200.0 mg/kg/injection, schedule: Q01DX009 (ip), vehicle: saline with Tween-80 94 % of control

CCOC(=O)C1C(c2cc(OC)c(OC)c(OC)c2)c2cc3c(cc2OC1(C)OC)OCO3 (stereo not drawn)
inactive: [2] 86 % of control | [3] 86 % of control | [4] 88 % of control

COC(=O)C(=O)C(C(=O)c1ccncc1)c1nc2n(c1O)C(=N)N=N2 (stereo not drawn)
inactive: dose: 50.0 mg/kg/injection, schedule: Q01DX005 (ip), vehicle: saline 97 % of control | dose: 100.0 mg/kg/injection, schedule: Q01DX005 (ip), vehicle: saline 97 % of control | dose: 200.0 mg/kg/injection, schedule: Q01DX005 (ip), vehicle: saline 100 % of control

O=c1[nH]c2c([N+](=O)[O-])cc(Cl)cc2nc1/C=C(\O)c1cccc2ccccc12
inactive: [9] 101 % of control | [10] 102 % of control | [11] 105 % of control

N#CC1C(=O)NC(=O)C(C#N)C1c1ccccc1 (stereo not drawn)
inactive: [12] 102 % of control | [13] 101 % of control | [14] 100 % of control

O=C1c2cccc(Oc3ccccc3)c2C(=O)c2cccc(Oc3ccccc3)c21
inactive: [5] 95 % of control | [6] 86 % of control | dose: 400.0 mg/kg/injection, schedule: Q04DX003 (ip), vehicle: saline with Tween-80 90 % of control

O=C1C(=O)c2ccccc2C(O)=C1CCCc1ccc(OCc2ccccc2)cc1
inactive: [1] 107 % of control | dose: 10.0 mg/kg/injection, schedule: Q01DX009 (ip), vehicle: saline with Tween-80 117 % of control | dose: 20.0 mg/kg/injection, schedule: Q01DX009 (ip), vehicle: saline with Tween-80 108 % of control | dose: 40.0 mg/kg/injection, schedule: Q01DX009 (ip), vehicle: saline with Tween-80 105 % of control

CSCCC([NH-])C(=O)O.CSCCC([NH-])C(=O)O.[Ni+2] (stereo not drawn)
inactive: dose: 0.79 mg/kg/injection, schedule: Q01DX009 (ip), vehicle: saline 92 % of control | dose: 1.56 mg/kg/injection, schedule: Q01DX009 (ip), vehicle: saline 96 % of control | dose: 3.12 mg/kg/injection, schedule: Q01DX009 (ip), vehicle: saline 97 % of control | dose: 12.5 mg/kg/injection, schedule: Q01DX009 (ip), vehicle: saline 94 % of control

Cc1ccc(SCc2cn(C3CC(O)C(CO)O3)c(=O)[nH]c2=O)cc1 (stereo not drawn)
inactive: [9] 99 % of control | [10] 95 % of control | [11] 92 % of control

CCCCCCCCOC(=O)COc1ccc(Cl)cc1Cl
inactive: dose: 50.0 mg/kg/injection, schedule: Q01DX001 (ip), vehicle: Klucel (hydroxypropylcellulose) (HPC) 113 % of control | dose: 50.0 mg/kg/injection, schedule: Q01DX001 (ip), vehicle: saline with Tween-80 98 % of control | dose: 100.0 mg/kg/injection, schedule: Q01DX001 (ip), vehicle: Klucel (hydroxypropylcellulose) (HPC) 109 % of control | [7] 100 % of control | dose: 200.0 mg/kg/injection, schedule: Q01DX001 (ip), vehicle: Klucel (hydroxypropylcellulose) (HPC) 122 % of control | [8] 105 % of control

CC(C)Oc1ccc(C(=O)NS(=O)(=O)c2ccc(N=Nc3c(O)n(-c4ccccc4)n(-c4ccccc4)c3=O)cc2)cc1
inactive: [12] 94 % of control | [13] 91 % of control | [14] 93 % of control

F[C](F)(F)[Hg][Br]
inactive: dose: 6.25 mg/kg/injection, schedule: Q04DX002 (ip), vehicle: saline 100 % of control | dose: 12.5 mg/kg/injection, schedule: Q04DX002 (ip), vehicle: saline 92 % of control | dose: 25.0 mg/kg/injection, schedule: Q04DX002 (ip), vehicle: saline 106 % of control

CCOC(=O)NC(NC(=O)OCC)C(=O)Nc1cccc2c(OC(=O)C(NC(=O)OCC)NC(=O)OCC)c(N=Nc3ccc(S(=O)(=O)Nc4nccs4)cc3)cc(N=Nc3ccc(S(=O)(=O)Nc4nccs4)cc3)c12 (tested in a mixture with another compound)
inactive: dose: 50.0 mg/kg/injection, schedule: Q01DX005 (ip), vehicle: saline with Tween-80 117 % of control | dose: 100.0 mg/kg/injection, schedule: Q01DX005 (ip), vehicle: saline with Tween-80 112 % of control and 94 % of control

Fc1ccc(C(Nc2nncs2)Nc2nncs2)cc1F
inactive: [2] 101 % of control | [3] 101 % of control | [4] 110 % of control

O=c1[nH]cnc2c1ccn2C1OC(CO)C(O)C1O (stereo not drawn)
inactive: dose: 3.0 mg/kg/injection, schedule: Q01DX009 (ip), vehicle: saline with Tween-80 100 % of control | dose: 6.0 mg/kg/injection, schedule: Q01DX009 (ip), vehicle: saline with Tween-80 100 % of control | dose: 12.0 mg/kg/injection, schedule: Q01DX009 (ip), vehicle: saline with Tween-80 104 % of control

S=C(N/N=C\c1nc2ccccc2c2ccccc12)Nc1ccc(Cl)cc1
inactive: dose: 100.0 mg/kg/injection, schedule: Q04DX002 (ip), vehicle: Klucel (hydroxypropylcellulose) (HPC) 90 % of control | dose: 200.0 mg/kg/injection, schedule: Q04DX002 (ip), vehicle: Klucel (hydroxypropylcellulose) (HPC) 96 % of control | dose: 400.0 mg/kg/injection, schedule: Q04DX002 (ip), vehicle: Klucel (hydroxypropylcellulose) (HPC) 96 % of control
